# Reference: patent US8680139B2 (Progenra, priority 2009, dated 2014)
# Key:
# USP7 = molecular target: T1, USP7 (Homo sapiens, UniProt Q93009); assay: USP7, Ub-PLA2 assay; type: biochemical; details: for EC50: Ub-PLA2 / NBD C6-HPC fluorescence, 30 minute preincubation, read-out: EC50 for inhibition of USP7; for USP7 inhibition, result in words: USP7, Ub-PLA2 assay
# T1 construct: full length human USP7 protein; made in house
# Outline: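 Compounds tested against USP7 with DMSO vehicle control and NEM-treated wells as background. Fluorescence (RFU) read-out; % inhibition normalized per plate to mean DMSO and NEM controls.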
# [1] = HCT-116 Cellular Cytotoxicity Assay; details: human, HCT-116 cells, pH 7.2
# Protocol: The purpose of this assay is to determine if any of the synthesized compounds are cytotoxic against HCT-116 cells, as measured by resazurin metabolism. Resazurin is metabolized only by living cells from a non-fluorescent molecule into Resorufin, a highly red fluorescent dye. […] The cells were cultured in an incubator at 37° C. in 5% CO2 and 95% humidified air. […] The final concentration DMSO was 0.5% (v/v) in all samples. The plates were returned to the incubator for 72 hours. Following 72 hours of test compound exposure, 10 μL of 0.2 mg/mL Resazurin (Sigma) in phosphate buffered saline was added to each well and the plate was returned to the incubator for 3-6 hours. Since living cells metabolize Resazurin, the fluorescence of the reduction product of Resazurin was measured using a microplate fluorometer with λex=531 nm and λem=590 nm filters. Resazurin dye in medium without cells was used to determine the background, which was subtracted from the data for all experimental wells.
# HCT-116 cells = assay: HCT-116 Combination Cytotoxicity Assay; type: cell-based, human; details: constant ratio, 72 hours
# T1 sequence (Q93009 whole entry): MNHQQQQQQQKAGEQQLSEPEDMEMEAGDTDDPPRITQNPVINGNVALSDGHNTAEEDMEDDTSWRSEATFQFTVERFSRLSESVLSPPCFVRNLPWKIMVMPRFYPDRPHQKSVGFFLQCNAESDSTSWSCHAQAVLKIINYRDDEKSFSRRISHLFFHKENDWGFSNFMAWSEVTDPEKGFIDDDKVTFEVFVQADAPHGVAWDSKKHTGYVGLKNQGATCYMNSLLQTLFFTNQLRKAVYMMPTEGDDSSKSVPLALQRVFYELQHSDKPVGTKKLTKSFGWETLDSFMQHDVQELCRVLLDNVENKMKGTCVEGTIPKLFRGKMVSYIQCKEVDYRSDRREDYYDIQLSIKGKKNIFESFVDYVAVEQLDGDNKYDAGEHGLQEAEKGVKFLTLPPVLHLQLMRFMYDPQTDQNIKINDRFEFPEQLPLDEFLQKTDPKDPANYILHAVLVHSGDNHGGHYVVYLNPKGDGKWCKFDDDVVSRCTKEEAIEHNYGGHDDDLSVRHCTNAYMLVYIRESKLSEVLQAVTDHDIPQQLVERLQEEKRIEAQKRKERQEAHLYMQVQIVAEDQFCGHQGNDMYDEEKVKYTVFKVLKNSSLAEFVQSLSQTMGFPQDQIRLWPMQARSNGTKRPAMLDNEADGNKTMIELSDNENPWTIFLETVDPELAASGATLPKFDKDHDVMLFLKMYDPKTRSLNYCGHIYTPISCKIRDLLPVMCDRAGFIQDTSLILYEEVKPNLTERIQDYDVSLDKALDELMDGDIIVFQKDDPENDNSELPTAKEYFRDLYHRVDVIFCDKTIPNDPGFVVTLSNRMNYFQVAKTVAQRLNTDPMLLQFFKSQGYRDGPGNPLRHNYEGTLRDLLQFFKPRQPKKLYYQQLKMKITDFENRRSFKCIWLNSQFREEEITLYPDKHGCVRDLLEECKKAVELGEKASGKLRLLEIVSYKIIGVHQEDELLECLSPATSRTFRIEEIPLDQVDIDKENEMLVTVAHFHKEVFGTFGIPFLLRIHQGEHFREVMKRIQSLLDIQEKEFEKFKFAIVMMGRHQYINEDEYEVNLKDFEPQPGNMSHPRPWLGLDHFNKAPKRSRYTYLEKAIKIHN
SMILES,EC50 (USP7) [µM],EC50 at 72 h [1] [µM],also measured
"CN1CCC(NC(=O)c2cc([N+](=O)[O-])c(Sc3c(Cl)cncc3Cl)s2)CC1 [Example 168, 5-((3,5-dichloropyridin-4-yl)thio)-N-(1-methylpiperidin-4-yl)-4-nitrothiophene-2-carboxamide]",≤ 1,6.52,CI (mean ± SD) ED75 (HCT-116 cells; combination with Chlormethine): 0.70 ± 0.10; CI (mean ± SD) ED90 (HCT-116 cells; combination with Chlormethine): 0.78 ± 0.13; CI (mean ± SD) ED75 (HCT-116 cells; combination with Doxorubicin): 0.73 ± 0.09; CI (mean ± SD) ED90 (HCT-116 cells; combination with Doxorubicin): 0.81 ± 0.11; CI (mean ± SD) ED75 (HCT-116 cells; combination with Etoposide): 0.54 ± 0.10; CI (mean ± SD) ED90 (HCT-116 cells; combination with Etoposide): 0.59 ± 0.14
"COc1ccc(NC(=O)c2cc([N+](=O)[O-])c(Sc3c(Cl)cncc3Cl)s2)cn1 [Example 175, 5-((3,5-dichloropyridin-4-yl)thio)-N-(6-methoxypyridin-3-yl)-4-nitrothiophene-2-carboxamide]",≤ 1,7.23,–
"COc1ccc(NC(=O)c2cc([N+](=O)[O-])c(Sc3c(Cl)cncc3Cl)s2)cc1 [Example 155, 5-((3,5-dichloropyridin-4-yl)thio)-N-(4-methoxyphenyl)-4-nitrothiophene-2-carboxamide]",≤ 1,5.49,"USP7 inhibition, result in words (USP7): Particularly good results"
"CC(=O)c1cc([N+](=O)[O-])c(Sc2ccc(Cl)c(Cl)c2)s1 [Example 8, 1-[5-(3,4-Dichlorophenylsulfanyl)-4-nitro-2-thienyl]ethanone]",1 to 10,14.8,–
"CN1C(C)(C)CC(NC(=O)c2cc([N+](=O)[O-])c(Sc3c(Cl)cncc3Cl)s2)CC1(C)C [Example 188, 5-((3,5-dichloropyridin-4-yl)thio)-4-nitro-N-(1,2,2,6,6-pentamethylpiperidin-4-yl)thiophene-2-carboxamide]",≤ 1,7.9,–
"O=C(Nc1cc(C2CC2)n[nH]1)c1cc([N+](=O)[O-])c(Sc2c(Cl)cncc2Cl)s1 [Example 123, N-(3-cyclopropyl-1H-pyrazol-5-yl)-5-((3,5-dichloropyridin-4-yl)thio)-4-nitrothiophene-2-carboxamide]",≤ 1,11,"USP7 inhibition, result in words (USP7): Particularly good results"
"CN(C)CCNc1ccc(NC(=O)c2cc([N+](=O)[O-])c(Sc3c(Cl)cncc3Cl)s2)cn1 [Example 238, 5-((3,5-dichloropyridin-4-yl)thio)-N-(6-((2-(dimethylamino)ethyl)amino)pyridin-3-yl)-4-nitrothiophene-2-carboxamide]",≤ 1,3.96,–
"CC(=O)c1cc([N+](=O)[O-])c(Oc2ccc(Cl)cc2Cl)s1 [Example 271, 1-(5-(2,4-dichlorophenoxy)-4-nitrothiophen-2-yl)ethanone]",1 to 10,8.54,–
"O=C(Nc1ccon1)c1cc([N+](=O)[O-])c(Sc2c(Cl)cncc2Cl)s1 [Example 171, 5-((3,5-dichloropyridin-4-yl)thio)-N-(isoxazol-3-yl)-4-nitrothiophene-2-carboxamide]",≤ 1,10.9,–
"COc1cc(NC(=O)c2cc(C#N)c(Sc3c(Cl)cncc3Cl)s2)ccc1OCCCN(C)C [Example 205, 4-cyano-5-((3,5-dichloropyridin-4-yl)thio)-N-(4-(3-(dimethylamino)propoxy)-3-methoxyphenyl)thiophene-2-carboxamide]",≤ 1,3.1,–
